What all share (format): cell-based, human
Test [1] deals with interleukin-6. Put plainly: IL-6 production by monocytes of HIV-positive donors. How it is done:
(§1) The effects of flavopereirine on the production of primary (IL-1β and TNF-α) and secondary (IL-6) cytokines by monocytes was also tested. The adhesive monocytes used were taken from the blood of two types of donors:
HIV-positive donors from medical consultations. These individuals were in the early stages of HIV infection and, at the moment of taking the blood, were not undergoing any treatment. The risk factors involved were intravenous drug abuse for six of the donors, sexual transmission for three and blood transfusion (in Zaire) for one patient. No correlation was found between the risk factors and the results of the experiments.
The response of the monocytes taken from the various HIV-positive donors was tested in terms of spontaneous response. The quantities of cells received were low (the donors were not affected by cytapheresy), and the experiments were therefore limited by the number of cells available.
Interleukin-4 was used at the same time as flavopereirine H, since it has been shown prior to these experiments that this cytokine blocks the spontaneous production of interleukin-6 in certain HIV-positive patients.
In five cases, […] was used for comparison, since this, too, blocks the production of IL-6 in normal monocytes stimulated by LPS.

Test [2] deals with TNF-α. Put plainly: TNF-α production by monocytes of normal donors. The conditions noted are these: 1000 U/ml, 48 hours. As to the method: as §1
(§2) Normal donors--voluntary blood donors who attended the blood bank of the Pitie-Salpetriere Hospital, Paris, France; and
(§3) Product H was not used in these experiments at a rate of more than 20 μg/ml water, since above this rate, net toxicity could have been produced.

Test [3] concerns IL-1β. Put plainly: IL-1β production by monocytes of normal donors. The conditions noted are these: 1000 U/ml, 48 hours; except donor #10. As to the method:
as §1, §2, §3

With “Interleukin-9: blocks the production of IL-6 in normal monocytes stimulated by LPS”, in test [1] (combined with interleukin-4, five cases), the “compound effect with interleukin-4 on IL-6 production” value is “never has a compound effect to that of interleukin-4”. In addition, in test [1] (five cases), the “maximum inhibition of spontaneous production of IL-6” value is on record as not above 50%.
“interferon: stimulation of monocytes over a period of 48 hours with interferon (1000 U/ml) [reference compound]”: the “production of primary cytokines (TNF-α)” value in test [2] is recorded as “did not cause any production of primary cytokines”. Further, the “production of primary cytokines (IL-1β)” value in test [3] is “did not cause any production of primary cytokines, except in donor #10 in 1L-1β”.

B1: Interleukin-4: cytokine that blocks the spontaneous production of interleukin-6 in certain HIV-positive patients (protein, UniProt P05112 25-153, looked up)
Interleukin-4: HKCDITLQEIIKTLNSLTEQKTLCTELTVTDIFAASKNTTEKETFCRAATVLRQFYSHHEKDTRCLGATAQQFHRHKQLIRFLKRLDRNLWGLAGLNSCPVKEANQSTLENFLERLKTIMREKYSKCSS
B1: the “inhibition of production of IL-6” value in test [1] (alone, never total, p<0.05) is “inhibited the production of IL-6, but this inhibition was never total”.

These data come from US5519028A, “Antiviral preparations” (priority 1992, dated 1996).
